Results as given in publication PMC10408569, “Recruitment of hexahydroquinoline as anticancer scaffold targeting inhibition of wild and mutants EGFR (EGFR^WT, EGFR^T790M, and EGFR^L858R)” (Journal of Enzyme Inhibition and Medicinal Chemistry, 2023).

Columns and labels:
NCI-H23 = experiment: NCI-60 anticancer screening (SRB); type: cell-based; conditions: Homo sapiens, five doses 0.01-100 µM, 48 h
[1] = Cytotoxic effects in vitro on normal lung cells; type: cell-based; conditions: IMR-90 normal lung fibroblast cells; human normal lung fibroblast (IMR-90); read-out: IC50, cytotoxicity towards human normal cells IMR-90
HOP-92 cells [2] = experiment: Annexin V-FITC apoptosis assay; type: cell-based, human; conditions: for total apoptosis, fold more than control / total apoptosis percentage: HOP-92; for early apoptosis ratio / late apoptosis ratio: HOP-92, 10 µM, 24 h; for early apoptosis ratio: control (DMSO) 0.70%; for late apoptosis ratio: control (DMSO) 1.80%; for total apoptosis percentage: control 2.5%
From the text: The most important mechanism chemotherapeutics eradicate cancer cells is apoptosis induction[78]^,[79]. Cellular alterations brought on by apoptosis include the translocation of phosphatidylserine (PS) from the inside to the outside via the plasma membrane[80]^,[81]. PS can be detected outside the plasma membrane using a sensitive probe called Annexin V, which can bind to PS[82]^,[83]. […] HOP-92 cells were also overexpressed in NSC lung cancer. Therefore, they were selected to be subjected to apoptosis assay. HOP-92 cells were stained with AV/PI for 24 h at a mixed molar concentration of 10 µM with compounds 10c and 10d (Figure 7(A,B)). […] These findings supported that the cytotoxic effects of compounds 10c and 10d were due to the apoptotic mechanism rather than the necrotic pathway. The results of compounds 10c and 10d compared to the control sample are presented as a bar chart (Figure 7(D)).
[…] Annexin V-FITC apoptosis assay
A protein known as annexin V-fluorescein isothiocyanate (Annexin V-FITC) binds phosphatidyl serine PS, which can be seen by staining. They used Annexin V-FITC and a propidium iodide counterstain (PI). Apoptosis was first induced by incubating cells in 96-microwell plates at a density of […] with the addition of the test substance (100 µL) for 24 hours. Then, 1-5 × 10^5 cells were centrifuged and resuspended in 500 µL of binding buffer. PI (5 µL) and Annexin V - FITC (5 µL) were added, and the mixture was incubated at room temperature for 5 minutes in the dark. An nexin -V -FITC binding was analyzed using A FACS C alibur flow cytometer (BD Biosciences, San Jose, CA). […]

HOP-92 cells [3] = experiment: Cell cycle analysis by flow cytometry; type: cell-based, human; conditions: HOP-92, 10 µM, 24 h; for percentage of cells at the pre-G1 phase: control 3.05%; for cells at G2/M: control 12.98%; for proportion of cells in the S phase: control 31.46%; for percentage of cells in the G0/G1: control 55.38%
Experimental: Antitumor drugs can cause cell cycle arrest and death via activating signalling pathways[85]^,[86]. Cell growth in various cell cycle phases is measured by flow cytometry[87]^,[88]. […] We have treated HOP-92 cells with 10 µM of compounds 10c and 10d to incubate for 24 h. […] According to these observations, Compounds 10c and 10d induce apoptosis in NSC lung cancer, HOP-92, cells via cell cycle arrest at the pre-G1 phase as well as the G2/M phase (Figure 8(D)). […]
[…] Cellular mechanistic analysis
The examination of the cell cycle was done using flow cytometry. The test compound was applied to HOP-92 cells before they were cultured for 24 hours at 37 °C, 5% CO 2. After gathering and centrifuging the cell pellets, they were fixed in 70% (v/v) ethanol unde r the ice for 15 minutes. Pellets were once more collected and then incubated in a solution of 50 µg/mL propidium iodide (PI) and […]
0.1 mg/mL RNAse. […]

CCOC(=O)C1=C(N)N(c2ccccc2)C2=C(C(=O)CC(C)(C)C2)C1c1ccc(Cl)cc1Cl (racemic) [10c, (±)-Ethyl 2-amino-4–(2,4-dichlorophenyl)-7,7-dimethyl-5-oxo-1-phenyl-1,4,5,6,7,8-hexahydroquinoline-3-carboxylate]
GI50 (NCI-H23): 2.51 µM
IC50 [1]: 62.2 ± 3.14 µM
total apoptosis, fold more than control (HOP-92 cells [2]): approximately 10 fold
early apoptosis ratio (HOP-92 cells [2]): 8.74%
late apoptosis ratio (HOP-92 cells [2]): 15.44%
total apoptosis percentage (HOP-92 cells [2]): 24.18%
percentage of cells at the pre-G1 phase (HOP-92 cells [3]): 25.82%
cells at G2/M (HOP-92 cells [3]): 34.07%
proportion of cells in the S phase (HOP-92 cells [3]): 20.18%
percentage of cells in the G0/G1 (HOP-92 cells [3]): 45.75%

CCOC(=O)C1=C(N)N(c2ccc(Cl)cc2)C2=C(C(=O)CC(C)(C)C2)C1c1ccc(Cl)cc1Cl (racemic) [10d, (±)-Ethyl 2-amino-1–(4-chorophenyl)-4–(2,4-dichlorophenyl)-7,7-dimethyl-5-oxo-1-phenyl-1,4,5,6,7,8-hexahydroquinoline-3-carboxylate]
IC50 [1]: 55.5 ± 2.57 µM
total apoptosis, fold more than control (HOP-92 cells [2]): ~8 fold
early apoptosis ratio (HOP-92 cells [2]): 7.68%
late apoptosis ratio (HOP-92 cells [2]): 12.15%
total apoptosis percentage (HOP-92 cells [2]): 19.83%
percentage of cells at the pre-G1 phase (HOP-92 cells [3]): 21.55%
cells at G2/M (HOP-92 cells [3]): 49.21%
proportion of cells in the S phase (HOP-92 cells [3]): 25.42%
percentage of cells in the G0/G1 (HOP-92 cells [3]): 25.37%
